Experiments:
[1] = in vivo; cited from earlier work
[2] = system: MS; details: in vivo; cited from earlier work
[3] = system: neuronal subtypes deprived of trophic support; details: cited from earlier work
[4] = system: primary neurons; details: cited from earlier work
[5] = system: retinal ganglion cells; details: following axotomy of the optic nerve; cited from earlier work
[6] = system: NGF-dependent neurons; assay: Apoptosis of NGF-dependent neurons after NGF deprivation (TUNEL); format: cell-based; details: media lacking NGF and containing anti-NGF antibody
Experimental: NGF-dependent neurons are maintained in vitro in media containing NGF. The cells are washed and the media containing NGF is replaced with media lacking NGF and containing anti-NGF antibody. One sample is incubated in the presence of RDP-58, the other in the absence of RDP-58. Apoptosis is measured in the two samples, for example, by TUNEL labeling. RDP-58 inhibits neuronal apoptosis in NGF-dependent neurons induced by NGF deprivation.

[7] = system: TNFα mRNA; assay: Cytokine mRNA in brain of EAE rats by real-time RT-PCR; format: in vivo, Lewis rats; details: brain RNA thirteen days after immunization, RDP58- vs Mannitol-treated, n=9, P<0.05
Experimental: Animals were sacrificed for molecular analysis at post onset day 5. Brains and spinal cords were removed and frozen in liquid nitrogen, then stored at −80° C. until ready for use. The tissues were subsequently homogenized in 700 μl of a guanidinium isothiocyanate solution containing 49 μl β-mercaptoethanol using an Ultraturrax tissue homogenizer (Jahnke and Kunkel, Staufen i. Breisgau, Germany). Total RNA was extracted by using the Absolutely RNA™ RT-PCR Miniprep Kit (Stratagene, La Jolla, USA) and its quality and quantity was determined with the Agilent 2100 Bioanalyzer System (Agilent Technologies, Palo Alto, USA). […]
To measure cytokine mRNA levels, the expression of each gene transcript was analyzed by real-time PCR using the ABI PRISM 7700 Sequence Detection System (TaqMan™, Perkin-Elmer Biosystems, Weiterstadt, Germany). […]
The PCR reaction was performed in a final volume of 25 μl containing 1 μl cDNA, 12.5 μl Master Mix (TaqMan™ Universal PCR Master Mix, Perkin Elmer, Applied Biosystems, Weiterstadt, Germany), 1 μl fluorogenic hybridization probe, […], and 5.5 μl distilled water. […] The mean Ct values for beta-actin and the cytokines were calculated from duplicate reactions. […]

[8] = system: experimental autoimmune encephalomyelitis (EAE); assay: Acute EAE in Lewis rats, daily clinical scoring; format: in vivo; details: intracerebroventricular administration (Table I, FIG. 7)
[9] = Body weight in EAE rats; format: in vivo, Lewis rats; details: 50, 15, or 5 mg by icv injection ten days after immunization; % body weight vs starting point
[10] = system: relapsing-remitting form of MS; details: patients with relapsing-remitting MS; cited from earlier work
[11] = rheumatoid arthritis patients; cited from earlier work
[12] = system: dopaminergic neurons in the substantia nigra; details: MPTP model; cited from earlier work
[13] = system: hair cell and cochlear neuron; details: associated with trauma; cited from earlier work
[14] = system: ChAT neurons of the nucleus basalis; details: following insult with ibotenic acid; cited from earlier work
[15] = system: Parkinson's disease; details: direct infusion into the putamen; cited from earlier work

CN(C)c1ccc(O)c2c1C[C@H]1C[C@H]3[C@H](N(C)C)C(O)=C(C(N)=O)C(=O)[C@@]3(O)C(O)=C1C2=O [minocycline]
penetration of the blood-brain-barrier [1]: limited

Cc1ccc(=O)n(-c2ccccc2)c1 [Pirfenidone]
progression of MS [2]: slow
symptoms of MS [2]: reduce

Oc1ccc(-c2nc(-c3ccncc3)c(-c3ccc(F)cc3)[nH]2)cc1 [SB202190]
survival of neuronal subtypes [3]: promote survival

C[S+]([O-])c1ccc(-c2nc(-c3ccncc3)c(-c3ccc(F)cc3)[nH]2)cc1 (stereo not shown) [SB203580]
NO toxicity [4]: inhibits
retinal ganglion cell death [5]: reduced
survival of neuronal subtypes [3]: promote survival

Arg-nL-nL-nL-Arg-nL-nL-nL-Gly-Tyr [RDP58]
neuronal apoptosis induced by NGF deprivation [6]: inhibits
TNFα mRNA level in brain [7]: significantly reduced
disease index [8]: reducing
incidence [8]: reducing
mean clinical scores [8]: reducing
severity [8]: reducing
change in body weight associated with EAE induction [9]: reduces

glatiramer acetate
disease episodes [10]: reductions

Infliximab: anti-TNF monoclonal antibody
demyelinating disease symptoms [11]: correlated with incidences of demyelinating disease symptoms in some patients

CCSCc1ccc2c(c1)c1c3c(c4c5cc(CSCC)ccc5n5c4c1n2[C@H]1C[C@](O)(C(=O)OC)[C@]5(C)O1)CNC3=O [CEP-1347]
survival of dopaminergic neurons in the substantia nigra [12]: promotes
functional deficits [13]: reduce
hair cell and cochlear neuron death [13]: prevent
functional deficits [14]: reduces
survival of ChAT neurons of the nucleus basalis [14]: promotes

B1: GDNF: glial cell line-derived neurotrophic factor (protein, UniProt P39905 78-211, looked up)
Glial cell line-derived …: SPDKQMAVLPRRERNRQAAAANPENSRGKGRRGQRGKNRGCVLTAIHLNVTDLGLGYETKEELIFRYCSGSCDAAETTYDKILKNLSRNRRLVSDKVGQACCRPIAFDDDLSFLDDNLVYHILRKHSAKRCGCI
patients' performance [15]: improve

Reference: US20040186052A1, “Cytomodulating peptides and methods for treating neurological disorders” (priority 2002, published 2004)
